Assay results: article PMC9981719, “A novel designed membrane-active peptide for the control of foodborne Salmonella enterica serovar Typhimurium” (Scientific Reports, 2023)
“Also recorded” adds a separate entry of the source. Where no end group is shown, it is not given here.

How the values were obtained:
[1] = tested on: S. Typhimurium H1-006; conditions: checkerboard, TSB, 37 °C, 24 h
Protocol: Effects of the combination of A11 with nisin against S. Typhimurium ATCC 13311 and 10 drug-resistant S. Typhimurium and S. enterica isolates were determined by the checkerboard titration method. Briefly, 10 drug-resistant S. Typhimurium were grown to a concentration of 1 × 10^7 CFU/ml in fresh TSB. Aliquots (25 µl) of nisin (final concentrations of 0.5–16 mg/ml) and A11 (final concentrations of 0.98–250 µg/ml) were added into 96-well plates containing 50 µl of bacterial suspension and cultured at 37 °C. […] ICA is the concentration required to produce the same effect as compound A when used alone, ICB is the concentration required to produce the same effect as compound B when used alone. The CI results were interpreted as follows: a CI of less than 1 indicates synergistic effect, a CI equal to 1 indicates additive effect, and a CI of more than 1 indicates antagonistic effect.

[2] = tested on: L929 mouse fibroblast cells; test: In vitro cytotoxicity, MTT assay; assay type: cell-based; conditions: 0.98–250 µg/ml, 24 h
Protocol: The cytotoxicity of A11 was evaluated by the 3-(4,5 dimethylthiazol-2-yl)-2,5-diphenyltetrazolium bromide (MTT) assay. L929 mouse fibroblast cells were cultured in Dulbecco's Modified Eagle Medium (DMEM) supplemented with 1% (v/v) of 100 IU/ml penicillin/streptomycin and 10% (v/v) fetal bovine serum (FBS). The cells were maintained in an air atmosphere containing the 5% CO2 under high humidity at 37 °C. L929 cell lines were seeded into a sterile 96-well plate (1 × 10^4 cells/well) then incubated overnight and treated with different concentrations of A11 (0.98–250 µg/ml) for 24 h. Media were removed, and cultured cells were incubated with 100 µl of MTT solution (4 mg/ml) for 4 h at 37 °C. After removal of MTT solution, the formed formazan was dissolved in 100 µl DMSO. Absorbance was measured by microplate reader at 570 nm; untreated cells served as negative control and melittin-treated cells as a positive control. Cell viability was determined following this equation: Cell viability%=ODTreated/ODControl×100

[3] = tested on: S. Typhimurium ATCC 13311; test: Effect of temperature on MIC; assay type: cell-based, Salmonella enterica serovar Typhimurium
Protocol: Two-fold serial dilutions (0.98–250 μg/ml) of A11 peptide were prepared and pre-incubated for 60 min at one of various temperatures (40 °C, 60 °C, 80 °C and 100 °C), and then cooled to 4 °C. After 30 min, 50 μl of heated peptide solutions were cultured with 50 μl of S. Typhimurium ATCC 13311 suspensions (approximately 1 × 10^7 CFU/ml). After 24 h incubation at 37 °C, MICs were determined; all experiments were done in triplicate.

[4] = tested on: S. Typhimurium ATCC13311; assay type: cell-based, Salmonella enterica serovar Typhimurium; conditions: at MIC and 2 × MIC
Protocol: Bacterial killing kinetics of A11 were investigated against S. Typhimurium as described previously. S. Typhimurium ATCC13311 was grown in TSB at 37 °C until reaching the exponential phase. […] The mixture was sampled at 1, 2, 4, 6, 8, 12 and 24 h, and subsequently tenfold serially diluted in 1 × PBS and plated in triplicate on Mueller–Hinton agar (MHA). After incubation at 37 °C for 24 h, the colonies were counted and CFU/ml was calculated. The tests were done in three independent experiments.

[5] = tested on: 4,5,12:i:- H2-042; assay type: cell-based, Salmonella enterica 4,5,12:i:-; conditions: strain H2-042
Text: (§1) All tests were done in triplicate.

[6] = tested on: 4,5,12:i:- H2-049; assay type: cell-based, Salmonella enterica 4,5,12:i:-; conditions: strain H2-049
Text: as §1

[7] = tested on: 4,5,12:i:- H2-089; assay type: cell-based, Salmonella enterica 4,5,12:i:-; conditions: strain H2-089
Text: as §1

[8] = tested on: 4,5,12:i:- H2-071; assay type: cell-based, Salmonella enterica 4,5,12:i:-; conditions: strain H2-071
Text: as §1

[9] = tested on: 4,5,12:i:- H2-067; assay type: cell-based, Salmonella enterica 4,5,12:i:-; conditions: strain H2-067
Text: as §1

[10] = tested on: 4,5,12:i:- H1-100; assay type: cell-based, Salmonella enterica 4,5,12:i:-; conditions: strain H1-100
Text: as §1

[11] = tested on: 4,5,12:i:- H2-047; assay type: cell-based, Salmonella enterica 4,5,12:i:-; conditions: strain H2-047
Text: as §1

[12] = tested on: 4,5,12:i:- H2-039; assay type: cell-based, Salmonella enterica 4,5,12:i:-; conditions: strain H2-039
Text: as §1

[13] = tested on: 4,5,12:i:- H1-024; assay type: cell-based, Salmonella enterica 4,5,12:i:-; conditions: strain H1-024
Text: as §1

[14] = tested on: 4,5,12:i:- H2-010; assay type: cell-based, Salmonella enterica 4,5,12:i:-; conditions: strain H2-010
Text: as §1

[15] = tested on: S. Typhimurium ATCC 13311; assay type: cell-based, Salmonella enterica serovar Typhimurium; conditions: ATCC 13311, 24 h
Protocol: Two-fold serial dilutions (0.98–250 μg/ml) of A11 with various concentrations of MgCl2 and NaCl (1 mM MgCl2, 5 mM MgCl2, 1% NaCl, 3% NaCl, 5% NaCl and 10% NaCl) were prepared and incubated at 37 °C for 60 min. Then, 50 μl of A11 in different salt concentrations were incubated with 50 μl of S. Typhimurium ATCC 13311 suspension (approximately 1 × 10^7 CFU/ml) at 37 °C with shaking. After 24 h, MICs were determined; all experiments were done in triplicate.

**Q.** How did the “MIC (alone)” value [1] turn out when WVKKVARKVVKIGRKVAR-NH2 [A11] was run?
**A.** 125 µg/mL

**Q.** And the “cytotoxicity toward L929 cells (cell viability, MTT)” value [2]?
**A.** no cytotoxic activity; also recorded: no cytotoxic effect

**Q.** What about the “MIC after 40 °C” value ([3]; peptide pre-incubated 60 min at 40 °C, cooled to 4 °C, then 24 h at 37 °C with bacteria, triplicate) of the same substance?
**A.** 15.63 µg/mL

**Q.** What about the “MIC after 60 °C” value ([3]; peptide pre-incubated 60 min at 60 °C, cooled to 4 °C, then 24 h at 37 °C with bacteria, triplicate) of the same substance?
**A.** 15.63 µg/mL

**Q.** What about the “MIC after 80 °C” value ([3]; peptide pre-incubated 60 min at 80 °C, cooled to 4 °C, then 24 h at 37 °C with bacteria, triplicate) of the same substance?
**A.** 15.63 µg/mL

**Q.** And the “MIC after 100 °C” value ([3]; peptide pre-incubated 60 min at 100 °C, cooled to 4 °C, then 24 h at 37 °C with bacteria, triplicate)?
**A.** 15.63 µg/mL

**Q.** What about the “MIC after heat treatment, same value at each temperature” value ([3]; various temperatures from 40 to 100 °C for 1 h) of the same substance?
**A.** 15.63 µg/mL

**Q.** And the “killing of S. Typhimurium within 6 h” value [4]?
**A.** more than 99%

**Q.** What about the MBC [5] of the same substance?
**A.** 125 µg/mL

**Q.** And the MIC [5]?
**A.** 62.5 µg/mL

**Q.** What about the MBC [6] of the same substance?
**A.** 125 µg/mL

**Q.** And the MIC [6]?
**A.** 62.5 µg/mL

**Q.** What about the MBC [7] of the same substance?
**A.** 125 µg/mL

**Q.** And the MIC [7]?
**A.** 62.5 µg/mL

**Q.** What about the MBC [8] of the same substance?
**A.** 125 (125) µg/ml

**Q.** And the MIC [8]?
**A.** 125 (125) µg/ml

**Q.** What about the MBC [9] of the same substance?
**A.** 62.5 (62.5) µg/ml

**Q.** And the MIC [9]?
**A.** 62.5 (62.5) µg/ml

**Q.** And the MBC [10]?
**A.** 62.5 (62.5) µg/ml

**Q.** What about the MIC [10] of the same substance?
**A.** 62.5 (62.5) µg/ml

**Q.** What about the MBC [11] of the same substance?
**A.** 125 µg/mL

**Q.** What about the MIC [11] of the same substance?
**A.** 62.5 µg/mL

**Q.** And the MBC [12]?
**A.** 125 µg/mL

**Q.** What about the MIC [12] of the same substance?
**A.** 62.5 µg/mL

**Q.** What about the MBC [13] of the same substance?
**A.** 62.5 (62.5) µg/ml

**Q.** And the MIC [13]?
**A.** 62.5 (62.5) µg/ml

**Q.** What about the MBC [14] of the same substance?
**A.** 62.5 (62.5) µg/ml

**Q.** What about the MIC [14] of the same substance?
**A.** 62.5 (62.5) µg/ml

**Q.** And the “MIC in 1 mM MgCl2” value [15]?
**A.** 15.63 µg/mL

**Q.** And the “MIC in 5 mM MgCl2” value [15]?
**A.** 31.25 µg/mL

**Q.** What about the “MIC in 1% NaCl” value [15] of the same substance?
**A.** 15.63 µg/mL

**Q.** And the “MIC in 3% NaCl” value [15]?
**A.** 125 µg/mL

**Q.** What about the “MIC in 5% NaCl” value [15] of the same substance?
**A.** 250 µg/mL

**Q.** What about the “MIC in 10% NaCl” value [15] of the same substance?
**A.** > 250 µg/mL
